Assay results reported in patent US8445532B2, “Use of phthalide derivatives” (priority 2005, dated 2013).
In brackets after ≈: the same amount, converted by molar mass.

What was measured:
K562 = assay: MTT drug resistance determination to conventional chemotherapeutic drugs; type: cell-based, human; conditions: Homo sapiens, K562, drug alone, 68 h, read-out: IC50
Source text: (§1) The following cell lines were used: K562 (human chronic myeloid leukemia cell line) and K562/Adr (a cell line with drug-resistance to chemotherapeutic drugs such as Adriamycin induced by a long-term exposure to a low dosage of Adriamycin); KB (human oral epithelia cell line) and KBv200 (a cell line with drug-resistance to chemotherapeutic drugs such as Vincristine induced by a long-term exposure to a low dosage of Vincristine); MCF-7 (human mammary cancer cell line) and MCF-7/Adr (a cell line with drug-resistance to chemotherapeutic drugs such as Adriamycin induced by a long-term exposure to a low dosage of Adriamycin). All the cell lines mentioned above were purchased from Institute of Hematology, Chinese Academy of Medical Sciences.
(§2) Half-inhibitory concentration (IC50) was calculated by the GraphPad Prism software (San Diego, Calif.). Drug reaction was analyzed by Sigmoldal non-linear regression model.
(§3) The cells at logarithmic phase were collected and added into RPMI 1640 medium (containing 10% fetal bovine serum) to prepare a cell suspension. Then the cell suspension was plated onto a 96-well plate at 100 μl per well (1×10^4 cell/well). Adriamycin, Vincristine, Taxol, cisplatin of different concentration gradients were directly added to the semi-suspending cells (K562 and K562/Adr). The adherent cells were cultured for 24 hours after inoculation so that they could adhere completely, and then the drugs mentioned above in different concentrations were added. There were six parallel repeated wells for every concentration gradient. The medium was added up to a final volume of 200 μl per well. The cells were cultured at the condition of 37° C., saturated humidity, 5% CO2 for 68 hours. 50 μl MTT (2 mg/mL) per well was added. The 96-well plate was centrifuged and the supernatant was removed. Then 120 μl DMSO per well was added and vibrated by vibrator. The OD value was determined at a wavelength of 590 nm by enzyme labeling instrument after the crystal was dissolved completely.
(§4) The calculating method: IC50=drug concentration when the inhibitory rate was 50%.
(§5) Drug resistant factor (RF)=the IC50 of the drug resistant cells/the IC50 of the sensitive cells.

KB = assay: as above; type: cell-based, human; conditions: Homo sapiens, drug alone, 68 h, read-out: IC50
Source text: as §1, §2, §3, §4, §5

MCF-7 = assay: as above; type: cell-based, human; conditions: Homo sapiens, MCF7, MCF-7, drug alone, 68 h, read-out: IC50
Source text: as §1, §2, §3, §4, §5

K562/Adr [1] = assay: as above; type: cell-based, human
Source text: as §1
The multi-drug resistant cell line of K562/Adr is mainly characterized by the concurrency of multiple resistant mechanisms including the increased expression of P-gp and Bcl-2 family proteins, and the enhanced activity of glyoxalase I, etc. K562/Adr is resistant to Adriamycin 20 folds more than K562, and cross-resistant to Vincristine, Daunomycin, Mitoxantrone, Taxol, etc.
as §2, §3, §4, §5

KBv200 [2] = assay: as above; type: cell-based, human
Source text: as §1
The multi-drug resistant cell line, of KBv200 is also mainly characterized by the concurrency of multiple resistant mechanisms including the increased expression of P-gp and Bcl-2 family proteins, and the enhanced activity of glyoxalase I, etc. KBv200 is resistant to Vincristine more than 100 folds in comparison with KB, and cross-resistant to […], Daunomycin, Mitoxantrone, Taxol, etc.
as §2, §3, §4, §5

MCF-7/Adr [3] = assay: as above; type: cell-based, human
Source text: as §1
Similarly, the multi-drug resistant cell line of MCF-7/Adr is also mainly characterized by the concurrency of multiple resistant mechanisms including the increased expression of P-gp and Bcl-2 family proteins, and the enhanced activity of glyoxalase I, etc.
as §2, §3, §4, §5

K562/Adr cells = assay: Sensitizing effect of PA to conventional chemotherapeutic drugs (MTT); type: cell-based, human; conditions: for RF (Ctrl/S), Adr / RF (Ctrl/S), DDP / RF (Ctrl/S), Taxol / RF (Ctrl/S), Vin: IC50 without sensitizer / with sensitizer 10 μg/mL
Description: (§6) The cells at logarithmic phase were collected and added into RPMI 1640 medium (containing 10% fetal bovine serum) to make cell suspensions. The cell suspension was added to 96-well plate at 100 μl per well, and the cell number was 2×10^3 (suspending cells) or 1×10^3 (adherent cells) per well. After inoculation, the suspending cells were adapted for half an hour on the plate and the adherent cells were cultivated to allow adhesion before the drugs were added. The control groups (Ctrl) were added with anti-tumor drugs but without PA. The drug concentration of each PA group was 10 μg/mL. The concentrations of chemotherapeutic drugs increased from 0.001 μg/mL to 20 μg/mL. There Were six parallel repeated wells for every concentration gradient. RPMI 1640 was added up to a finally volume of 200 μl per well. The cells were cultured at the condition of 37° C., saturated humidity, 5% CO2 for 68 hours. The MTT was determined and the IC50 was calculated as in example 4.
(§7) The formula of resistant factor: Resistant Factor (RF)=the IC50 without sensitizer/the IC50 with sensitizer.

KBv200 cells = assay: as above; type: cell-based, human; conditions: for RF (Ctrl/S), Adr / RF (Ctrl/S), DDP / RF (Ctrl/S), Taxol / RF (Ctrl/S), Vin: KBv200, IC50 without sensitizer / with sensitizer 10 μg/mL
Description: as §6, §7

MCF-7/Adr cells = assay: as above; type: cell-based, human; conditions: for RF (Ctrl/S), Adr / RF (Ctrl/S), DDP / RF (Ctrl/S), Taxol / RF (Ctrl/S), Vin: IC50 without sensitizer / with sensitizer 10 μg/mL
Description: as §6, §7

K562/Adr [4] = assay: Growth inhibiting effect of PA on drug resistant cells (MTT); type: cell-based; conditions: Homo sapiens, PA alone, read-out: IC50 growth inhibition
Description: (§8) Methods: 1×10^3 cells per well were inoculated onto a 96-well plate. PA was added to K562/Adr directly and to KBV200 and MCF-7/Adr after adhesion. The concentrations of the drugs were 0, 0.1, 0.5, 1, 5, 10, 20, 40, 80, 160 μg/mL. MTT was determined according to the method of example 2 and the IC50 was calculated. The experiment was repeated three times.

KBv200 [5] = assay: as above; type: cell-based; conditions: Homo sapiens; KBv200, PA alone; read-out: IC50 growth inhibition
Description: as §8

MCF-7/Adr [6] = assay: as above; type: cell-based; conditions: Homo sapiens, NCI/ADR-RES, PA alone, read-out: IC50 growth inhibition
Description: as §8

IC50 (K562/Adr [4]) [µg/mL] | IC50 (MCF-7/Adr [6]) [µg/mL] | Structure (SMILES) | IC50 (KBv200 [5]) [µg/mL] | RF (Ctrl/S), Adr (K562/Adr cells) | RF (Ctrl/S), DDP (K562/Adr cells) | RF (Ctrl/S), Taxol (K562/Adr cells) | RF (Ctrl/S), Vin (K562/Adr cells) | RF (Ctrl/S), Adr (KBv200 cells) | RF (Ctrl/S), DDP (KBv200 cells) | RF (Ctrl/S), Taxol (KBv200 cells) | RF (Ctrl/S), Vin (KBv200 cells) | RF (Ctrl/S), Adr (MCF-7/Adr cells) | RF (Ctrl/S), DDP (MCF-7/Adr cells) | RF (Ctrl/S), Taxol (MCF-7/Adr cells) | RF (Ctrl/S), Vin (MCF-7/Adr cells) | further results
31.3 ± 1.87 (≈ 81.8 µM) | 43.2 ± 3.14 (≈ 113 µM) | CCC/C=C1\OC(=O)C2=CC3CC[C@]21C1C2=C(CC[C@@H]31)C(CCCC)OC2=O (stereo partly drawn) [S8] | 38.6 ± 2.17 (≈ 101 µM) | 1.796 | 2.722 | 3.506 | 7.918 | 3.623 | 4.375 | 3.87 | 7.326 | 5.639 | 6.407 | 1.612 | 9.597 | –
29.8 ± 0.995 (≈ 78.3 µM) | 44.5 ± 3.99 (≈ 117 µM) | CCC/C=C1\OC(=O)C2=C1CC[C@H]1C3C=C4C(=O)O/C(=C\CCC)[C@@]4(CC3)C21 (stereo partly drawn) [S6] | 35.2 ± 2.15 (≈ 92.6 µM) | 6.249 | 1.371 | 1.641 | 1.833 | 2.297 | 2.622 | 8.72 | 3.342 | 12.59 | 2.539 | 3.932 | 13.22 | –
20.4 ± 2.61 (≈ 53.7 µM) | 39.6 ± 4.61 (≈ 104 µM) | CCC/C=C1\OC(=O)C2=C1CCC1C(CCC)C3(OC(=O)C4=C3CCC=C4)C21 (stereo not drawn) [S7] | 36.9 ± 2.19 (≈ 97 µM) | 8.257 | 0.653 | 1.550 | 3.963 | 2.405 | 5.939 | 5.179 | 7.376 | 14.12 | 6.516 | 7.023 | 3.831 | –

Second part, the compound before the results:

Structure (SMILES) | IC50 (K562/Adr [4]) [µg/mL] | IC50 (MCF-7/Adr [6]) [µg/mL] | IC50 (KBv200 [5]) [µg/mL] | RF (Ctrl/S), Adr (K562/Adr cells) | RF (Ctrl/S), DDP (K562/Adr cells) | RF (Ctrl/S), Taxol (K562/Adr cells) | RF (Ctrl/S), Vin (K562/Adr cells) | RF (Ctrl/S), Adr (KBv200 cells) | RF (Ctrl/S), DDP (KBv200 cells) | RF (Ctrl/S), Taxol (KBv200 cells) | RF (Ctrl/S), Vin (KBv200 cells) | RF (Ctrl/S), Adr (MCF-7/Adr cells) | RF (Ctrl/S), DDP (MCF-7/Adr cells) | RF (Ctrl/S), Taxol (MCF-7/Adr cells) | RF (Ctrl/S), Vin (MCF-7/Adr cells) | further results
CC(=O)O[C@H]1C(=O)[C@@]2(C)[C@H]([C@H](OC(=O)c3ccccc3)[C@]3(O)C[C@H](OC(=O)[C@H](O)[C@@H](NC(=O)c4ccccc4)c4ccccc4)C(C)=C1C3(C)C)[C@]1(OC(C)=O)CO[C@@H]1C[C@@H]2O [Taxol, paclitaxel] | – | – | – | – | – | – | – | – | – | – | – | – | – | – | – | IC50 (K562): 0.0247 ± 0.001 µg/mL (≈ 0.0289 µM); IC50 (KB): 0.032 ± 0.001 µg/mL (≈ 0.0375 µM); IC50 (MCF-7): 0.0415 ± 0.003 µg/mL (≈ 0.0486 µM); IC50 (K562/Adr [1]; Homo sapiens, K562/Adr, drug alone, 68 h, MTT, read-out: IC50): 0.932 ± 0.092 µg/mL (≈ 1.09 µM); RF (drug resistant factor) (K562/Adr [1]; IC50 K562/Adr / IC50 K562): 37.72; IC50 (KBv200 [2]; Homo sapiens, KBv200, drug alone, 68 h, MTT, read-out: IC50): 1.348 ± 0.002 µg/mL (≈ 1.58 µM); RF (drug resistant factor) (KBv200 [2]; IC50 KBv200 / IC50 KB): 42.12; IC50 (MCF-7/Adr [3]; Homo sapiens, NCI/ADR-RES, MCF-7/Adr, drug alone, 68 h, MTT, read-out: IC50): 0.743 ± 0.21 µg/mL (≈ 0.87 µM); RF (drug resistant factor) (MCF-7/Adr [3]; IC50 MCF-7/Adr / IC50 MCF-7): 17.65; IC50 (K562/Adr cells; Homo sapiens, drug alone, 68 h, read-out: IC50 of anti-tumor drug, Ctrl (without PA)): 0.8225 ± 0.0073 µg/mL; IC50 (KBv200 cells; Homo sapiens, KBv200, drug alone, 68 h, read-out: IC50 of anti-tumor drug, Ctrl (without PA)): 1.01 ± 0.0421 µg/mL; IC50 (MCF-7/Adr cells; Homo sapiens, NCI/ADR-RES, drug alone, 68 h, read-out: IC50 of anti-tumor drug, Ctrl (without PA)): 0.906 ± 0.213 µg/mL
CCCCC1OC(=O)c2cccc(O)c21 (stereo not drawn) [S2] | 41.4 ± 3.53 (≈ 201 µM) | 29.4 ± 2.8 (≈ 143 µM) | 26.4 ± 1.98 (≈ 128 µM) | 41.12 | 5.698 | 10.57 | 1.757 | 12.23 | 2.767 | 10.83 | 11.40 | 6.939 | 2.565 | 10.19 | 6.239 | –
CCC/C=C1\OC(=O)C2=C1CCC(O)C2O (single isomer, unassigned) [S5] | 18.3 ± 0.762 (≈ 81.6 µM) | 39.3 ± 2.14 (≈ 175 µM) | 29.8 ± 1.05 (≈ 133 µM) | 6.264 | 2.104 | 2.117 | 3.109 | 16.95 | 3.208 | 13.88 | 2.088 | 5.02 | 4.508 | 15.62 | 6.934 | –
CCC/C=C1\OC(=O)C2=C1CCC1OC21 (single isomer, unassigned) [S3] | 39.2 ± 1.58 (≈ 190 µM) | 34 ± 3.76 (≈ 165 µM) | 27.4 ± 1.06 (≈ 133 µM) | 13.93 | 2.239 | 5.740 | 4.899 | 18.97 | 7.188 | 2.548 | 6.169 | 4.153 | 6.708 | 3.232 | 4.008 | –
CCCCC1OC(=O)C2=C1CCC=C2 (single isomer, unassigned) [S1] | 21.4 ± 1.09 (≈ 111 µM) | 37.4 ± 3.15 (≈ 195 µM) | 38.7 ± 2.13 (≈ 201 µM) | 34.99 | 5.116 | 24.04 | 6.214 | 10.27 | 8.063 | 5.245 | 13.03 | 11.34 | 3.376 | 2.685 | 11.12 | –
CCC/C=C1\OC(=O)C2=C1CCC=C2 [S4] | 32.4 ± 1.13 (≈ 170 µM) | 47.3 ± 2.12 (≈ 249 µM) | 32.5 ± 1.03 (≈ 171 µM) | 6.349 | 3.007 | 2.412 | 6.432 | 5.331 | 6.981 | 6.416 | 13.02 | 3.114 | 5.125 | 4.279 | 26.01 | –
